# Data from patent US20260199350A1, “FLAVONES, QUINOLINONES, QUINAZOLINONES, AND AURONES, AND USES IN CK2-MEDIATED DISEASES” (Salk Institute for Biological Studies, priority 2022, published 2026).
# Like-named read-outs stand apart in the source and are kept apart here.
# Key:
# [1] = Aqueous solubility; type: physicochemical; settings: read-out: Aqueous Solubility
# [2] = target: T1, CK2A2 (Homo sapiens, UniProt P19784); experiment: Radiometric kinase assay (Eurofins), CK2A2; type: biochemical; settings: read-out: CK2A2 RAD IC50
# T1 construct: purchased Eurofins
# Source text: (§1) • ^1Radiometric kinase assay from Eurofins. Performed in astrocytes with a Promega Lumit IL-6 kit.
# [3] = system: IL-6 secretion; experiment: IL-6 secretion assay in astrocytes (Promega Lumit IL-6 kit); type: cell-based, human; settings: Homo sapiens, Astrocyte, read-out: IL6-Inhib.
# Procedure: IL-6 secretion assay. HCAs were plated at 20,000 cells per well in white clear bottom 96-well plates. Two to three days later, media was removed and replaced with media containing 10 ng/mL IL1B and compound dilution series. Five hours later, plates were processed using the Lumit IL-6 Assay Kit (Promega W6030) according to the manufacturer's instructions.
# • ^1Radiometric kinase assay from Eurofins. Performed in astrocytes with a Promega Lumit IL-6 kit. A series of halogenated flavones was generated and assayed (Table 3).
# [4] = target: T2, CK2A1 (Homo sapiens, UniProt P68400); experiment: Radiometric kinase assay (Eurofins), CK2A1; type: biochemical; settings: read-out: CK2A1 RAD IC50
# T2 construct: purchased Eurofins
# Source text: FIGS. 4A-4F characterize flavones for in vitro and in-cell CK2 inhibition. […] Representative of two independent experiments. […] Nonlinear fit was used to calculate IC50. […] Nonlinear fit was used to calculate IC50. […] Nonlinear fit was used to calculate IC50. […] Normalized to DMSO, data are representative of three independent experiments.
# as §1
# [5] = aqueous (not further specified), Table 3
# [6] = aqueous medium (not further specified), Table 8
# T2 sequence (P68400 whole entry): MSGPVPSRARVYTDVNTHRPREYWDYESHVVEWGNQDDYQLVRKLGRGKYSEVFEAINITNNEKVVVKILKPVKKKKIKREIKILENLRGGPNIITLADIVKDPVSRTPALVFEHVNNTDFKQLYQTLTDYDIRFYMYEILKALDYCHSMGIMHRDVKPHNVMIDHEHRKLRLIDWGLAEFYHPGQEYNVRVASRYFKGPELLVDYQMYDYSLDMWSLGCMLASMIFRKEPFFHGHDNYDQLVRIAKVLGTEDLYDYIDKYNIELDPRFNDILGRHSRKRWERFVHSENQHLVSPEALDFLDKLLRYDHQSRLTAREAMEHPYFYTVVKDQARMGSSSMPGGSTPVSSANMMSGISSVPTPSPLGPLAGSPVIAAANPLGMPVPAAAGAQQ
# T1 sequence (P19784 whole entry): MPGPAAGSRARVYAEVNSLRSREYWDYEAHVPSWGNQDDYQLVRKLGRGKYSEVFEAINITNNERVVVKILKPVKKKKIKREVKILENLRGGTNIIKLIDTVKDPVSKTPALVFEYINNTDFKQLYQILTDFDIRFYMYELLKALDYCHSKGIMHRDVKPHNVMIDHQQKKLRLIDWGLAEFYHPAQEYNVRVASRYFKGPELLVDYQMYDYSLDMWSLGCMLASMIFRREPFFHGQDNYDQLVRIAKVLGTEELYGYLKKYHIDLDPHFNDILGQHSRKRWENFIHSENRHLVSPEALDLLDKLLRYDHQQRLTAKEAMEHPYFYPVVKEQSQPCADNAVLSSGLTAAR
SMILES,"solubility [1, 5] [µM]","IC50 ([2]; Table 3, halogenated flavones) [µM]",IC50 ([3]; Table 3) [µM],"IC50 ([4]; Table 3, halogenated flavones) [µM]",solubility ([1]; Table 11) [µM],"IC50 ([2]; Table 11, aurones) [µM]",IC50 ([3]; Table 11) [µM],"IC50 ([4]; Table 11, aurones) [µM]",other results
O=c1cc(-c2ccc(O)c(Cl)c2)oc2c(Cl)cc(Cl)cc12 [JKT.725A],39.9,0.012,4.8,0.015,–,–,–,–,–
O=C1/C(=C/c2ccc(O)c(Cl)c2)Oc2c(Br)cc(Br)cc21 [JKT.726A],–,–,–,–,7.8,0.026,3.4,0.044,–
O=C1/C(=C/c2ccc(O)cc2Cl)Oc2c(Br)cc(Br)cc21 [JKT.727A],–,–,–,–,73.7,> 5,4.7,> 5,–
O=C1/C(=C/c2ccc(O)c(I)c2)Oc2c(Br)cc(Br)cc21 [JKT.728A],–,–,–,–,17.7,0.07,1.7,0.081,–
O=c1[nH]c(-c2ccc(O)c(Br)c2)nc2c(Br)cc(Br)cc12 [JKT.734C],–,–,–,–,–,–,–,–,"solubility [1, 6]: > 200 µM; IC50 ([2]; Table 8, quinazolinones): 0.042 µM; IC50 ([3]; Table 8): > 10 µM; IC50 ([4]; Table 8, quinazolinones): 0.024 µM"
COc1cc(-c2cc(=O)c3cc(Br)cc(Br)c3[nH]2)ccc1O [JKT.736A],–,–,–,–,–,–,–,–,"solubility ([1]; Table 6): 10 µM; IC50 ([2]; Table 6, quinolinones): 0.015 µM; IC50 ([3]; Table 6): 3.9 µM; IC50 ([4]; Table 6, quinolinones): 0.022 µM"
COc1cc(-c2nc3c(Br)cc(Br)cc3c(=O)[nH]2)ccc1O [JKT.737B],–,–,–,–,–,–,–,–,"IC50 ([2]; Table 8, quinazolinones): 2.85 µM; IC50 ([3]; Table 8): > 10 µM; IC50 ([4]; Table 8, quinazolinones): 0.863 µM"
O=c1cc(-c2ccc(O)c(Br)c2)oc2c(Br)cccc12 [JKT.744B],5,0.017,3.7,0.013,–,–,–,–,–
COc1c(Br)cc2c(=O)cc(-c3ccc(O)c(Br)c3)oc2c1Br [JKT.745A],> 200,0.011,3,0.02,–,–,–,–,–
COc1c(Br)cc2c(=O)cc(-c3ccc(O)c(Cl)c3)oc2c1Br [JKT.748A],24.3,0.009,3.9,0.024,–,–,–,–,–
O=c1cc(-c2ccc(O)c(Cl)c2)oc2c(Br)cccc12 [JKT.749A],36.5,0.018,4.8,0.011,–,–,–,–,–
COc1c(Br)cc2c(=O)cc(-c3ccc(O)c(C(F)(F)F)c3)oc2c1Br [JKT.750A],124,0.466,2.2,0.58,–,–,–,–,–
O=c1cc(-c2ccc(O)c(C(F)(F)F)c2)oc2c(Br)cccc12 [JKT.751A],4,0.637,5,0.635,–,–,–,–,–
COc1c(Br)cc2c(=O)cc(-c3cc(F)c(O)c(F)c3)oc2c1Br [JKT.753A],109,1.85,> 10,> 5,–,–,–,–,–
O=C1/C(=C/c2ccc(O)cc2Br)Oc2c(Br)cc(Br)cc21 [JKT.758A],–,–,–,–,2.7,> 5,3,> 5,–
COc1c(Br)cc2c(c1Br)O/C(=C\c1ccc(O)c(Br)c1)C2=O [JKT.759A],–,–,–,–,3.6,0.044,2.3,0.057,–
COc1c(Br)cc2c(c1Br)O/C(=C\c1ccc(O)cc1Br)C2=O [JKT.760A],–,–,–,–,184,> 5,9.4,> 5,–
COc1c(Br)cc2c(c1Br)O/C(=C\c1ccc(O)c(Cl)c1)C2=O [JKT.761A],–,–,–,–,120,0.048,2.5,0.067,–
COc1c(Br)cc2c(c1Br)O/C(=C\c1ccc(O)cc1Cl)C2=O [JKT.762A],–,–,–,–,58.6,> 5,4.4,> 5,–
COc1c(Br)cc2c(c1Br)O/C(=C\c1ccc(O)c(C(F)(F)F)c1)C2=O [JKT.763A],–,–,–,–,7.9,0.627,2.7,0.598,–
COc1cc(/C=C2\Oc3c(cc(Br)c(OC)c3Br)C2=O)ccc1O [JKT.764A],–,–,–,–,< 0.01,0.383,12,0.521,–
COc1c(Br)cc2c(c1Br)O/C(=C\c1ccc(C(=O)O)cc1)C2=O [JKT.765A],–,–,–,–,> 200,0.199,15,2.46,–
O=c1[nH]c(-c2ccc(O)c(Cl)c2)nc2c(Br)cc(Br)cc12 [JKT.772A],–,–,–,–,–,–,–,–,"solubility [1, 6]: < 0.01 µM; IC50 ([2]; Table 8, quinazolinones): 0.072 µM; IC50 ([3]; Table 8): 11 µM; IC50 ([4]; Table 8, quinazolinones): 0.023 µM"
COc1nc(-c2nc3c(Br)nc(Br)cc3c(=O)[nH]2)ccc1O [JKT.976B],–,–,–,–,–,–,–,–,"IC50 ([2]; Table 8, quinazolinones): 0.495 µM; IC50 ([3]; Table 8): > 10 µM; IC50 ([4]; Table 8, quinazolinones): 0.234 µM"
